From ChEMBL document CHEMBL3885861, “Open TG-GATES”

Organism: Rattus norvegicus
Test: Open TG-GATES - Regimen: Daily Repeat
Assay type: toxicity, organism-based, Sprague-Dawley
Set-up: regimen Daily Repeat, gender Male, age 6 weeks
Settings: in vivo, po, 0 mg/kg, route gavage, dose level Control; for APTT / Bas / Eos / Fbg / Hb / Ht / Lym / MCH / MCHC / MCV / Mono / Neu / PT / Plat / RBC / Ret / WBC: tissue Blood; for KIDNEY_L / KIDNEY_R / KIDNEY_TOTAL: tissue Kidney; for LIVER: tissue Liver; for A/G / ALP / ALT / AST / BUN / CRE / Ca / Cl / DBIL / GLC / IP / K / LDH / Na / PL / RALB / TBIL / TC / TG / TP / gamma-GTP: tissue Plasma

## C[C@](N)(Cc1ccc(O)c(O)c1)C(=O)O [METHYLDOPA]
72 h, time 3 day
  TERMINAL_BW: 207.1 g
  APTT: 15.9 s
  Bas: 0%
  Eos: 1.2%
  Fbg: 258.8 mg/dL
  Hb: 13.1 g/dL
  Ht: 38.4%
  Lym: 72.4%
  MCH: 21.5 pg
  MCHC: 34.1%
  MCV: 63.1 fL
  Mono: 3.4%
  Neu: 22.6%
  PT: 12.6 s
  Plat: 117.2 x10_4/uL
  RBC: 609 x10_4/ul
  Ret: 7.9%
  WBC: 72.1 x10_2/uL
  KIDNEY_L: 0.9 g
  KIDNEY_R: 0.9 g
  KIDNEY_TOTAL: 1.8 g
  LIVER: 9.3 g
  A/G: 0.8
  ALP: 1855.2 IU/L
  ALT: 59.4 IU/L
  AST: 80.2 IU/L
  BUN: 14 mg/dL
  CRE: 0.2 mg/dL
  Ca: 11.1 mg/dL
  Cl: 106.6 meq/L
  DBIL: 0.008 mg/dL
  GLC: 172.8 mg/dL
  IP: 7.5 mg/dL
  K: 3.9 meq/L
  LDH: 52.2 IU/L
  Na: 144.6 meq/L
  PL: 129.8 mg/dL
  RALB: 2.6 g/dL
  TBIL: 0.056 mg/dL
  TC: 76.8 mg/dL
  TG: 61.4 mg/dL
  TP: 5.6 g/dL
  gamma-GTP: 1.2 IU/L
[…], time 7 day
  TERMINAL_BW: 238 g
  APTT: 17 s
  Bas: 0%
  Eos: 1.2%
  Fbg: 283.2 mg/dL
  Hb: 13.5 g/dL
  Ht: 39.4%
  Lym: 75%
  MCH: 21 pg
  MCHC: 34.2%
  MCV: 61.4 fL
  Mono: 3%
  Neu: 20.4%
  PT: 12 s
  Plat: 114.7 x10_4/uL
  RBC: 641.2 x10_4/ul
  Ret: 6%
  WBC: 75.9 x10_2/uL
  KIDNEY_L: 1 g
  KIDNEY_R: 1 g
  KIDNEY_TOTAL: 2 g
  LIVER: 10.9 g
  A/G: 0.9
  ALP: 1514 IU/L
  ALT: 46.8 IU/L
  AST: 72 IU/L
  BUN: 15.6 mg/dL
  CRE: 0.2 mg/dL
  Ca: 11 mg/dL
  Cl: 108.6 meq/L
  DBIL: 0.008 mg/dL
  GLC: 178.2 mg/dL
  IP: 6.9 mg/dL
  K: 4.2 meq/L
  LDH: 57.4 IU/L
  Na: 143.8 meq/L
  PL: 140.8 mg/dL
  RALB: 2.7 g/dL
  TBIL: 0.056 mg/dL
  TC: 75.8 mg/dL
  TG: 93.2 mg/dL
  TP: 5.8 g/dL
  gamma-GTP: 1.2 IU/L
[…], time 14 day
  TERMINAL_BW: 288.8 g
  APTT: 16.9 s
  Bas: 0%
  Eos: 1%
  Fbg: 290.4 mg/dL
  Hb: 13.8 g/dL
  Ht: 39.4%
  Lym: 76%
  MCH: 21.2 pg
  MCHC: 35%
  MCV: 60.4 fL
  Mono: 3.2%
  Neu: 19.6%
  PT: 14.1 s
  Plat: 102.2 x10_4/uL
  RBC: 652 x10_4/ul
  Ret: 4.8%
  WBC: 69.9 x10_2/uL
  KIDNEY_L: 1.1 g
  KIDNEY_R: 1.1 g
  KIDNEY_TOTAL: 2.2 g
  LIVER: 12.7 g
  A/G: 0.8
  ALP: 1553 IU/L
  ALT: 45.2 IU/L
  AST: 65.4 IU/L
  BUN: 15.2 mg/dL
  CRE: 0.2 mg/dL
  Ca: 11.3 mg/dL
  Cl: 107 meq/L
  DBIL: 0.01 mg/dL
  GLC: 188.4 mg/dL
  IP: 6.4 mg/dL
  K: 4.5 meq/L
  LDH: 66.2 IU/L
  Na: 142 meq/L
  PL: 151.8 mg/dL
  RALB: 2.7 g/dL
  TBIL: 0.058 mg/dL
  TC: 76 mg/dL
  TG: 140.8 mg/dL
  TP: 6 g/dL
  gamma-GTP: 1 IU/L
[…], time 28 day
  TERMINAL_BW: 375.3 g
  APTT: 19.6 s
  Bas: 0%
  Eos: 1.4%
  Fbg: 315.2 mg/dL
  Hb: 15 g/dL
  Ht: 43.3%
  Lym: 74.4%
  MCH: 19.5 pg
  MCHC: 34.8%
  MCV: 56 fL
  Mono: 2.6%
  Neu: 21.4%
  PT: 13.6 s
  Plat: 106 x10_4/uL
  RBC: 774 x10_4/ul
  Ret: 2.7%
  WBC: 74.6 x10_2/uL
  KIDNEY_L: 1.3 g
  KIDNEY_R: 1.2 g
  KIDNEY_TOTAL: 2.5 g
  LIVER: 15.4 g
  A/G: 0.8
  ALP: 1221.8 IU/L
  ALT: 41.2 IU/L
  AST: 59 IU/L
  BUN: 15.4 mg/dL
  CRE: 0.2 mg/dL
  Ca: 11.2 mg/dL
  Cl: 105.6 meq/L
  DBIL: 0.018 mg/dL
  GLC: 185.4 mg/dL
  IP: 6 mg/dL
  K: 3.9 meq/L
  LDH: 46.2 IU/L
  Na: 142.8 meq/L
  PL: 167.8 mg/dL
  RALB: 2.8 g/dL
  TBIL: 0.06 mg/dL
  TC: 89 mg/dL
  TG: 140.8 mg/dL
  TP: 6.3 g/dL
  gamma-GTP: 1 IU/L
